Results reported in ChEMBL document CHEMBL5303304, “EUbOPEN Chemogenomics Library - IncuCyte” (2023).

How the values were obtained:
Format in all cases: toxicity, cell-based
[1] = tested on: HEK-293T; test: Incucyte cell viability with HEK293T; conditions: human, 10 µM, compound concentration 10 uM
[2] = tested on: Fibroblast; test: Incucyte cell viability with human fibroblast; conditions: 10 µM, compound concentration 10 uM
[3] = tested on: U2OS; test: Incucyte cell viability with U2OS; conditions: human, 10 µM, compound concentration 10 uM
Also: unitless GR value; below 1 slowed growth and below 0 cell loss.

| SMILES | Growth Rate ([1]; 6 h, replicate number 1) | Growth Rate ([1]; 6 h, replicate number 2) | Growth Rate ([1]; 12 h, replicate number 1) | Growth Rate ([1]; 12 h, replicate number 2) | Growth Rate ([1]; 18 h, replicate number 1) | Growth Rate ([1]; 18 h, replicate number 2) | Growth Rate ([1]; 24 h, replicate number 1) | Growth Rate ([1]; 24 h, replicate number 2) | Growth Rate ([2]; 6 h, replicate number 2) | Growth Rate ([2]; 12 h, replicate number 1) | Growth Rate ([2]; 12 h, replicate number 2) | Growth Rate ([2]; 18 h, replicate number 2) | Growth Rate ([2]; 24 h, replicate number 2) | Growth Rate ([3]; 12 h, replicate number 1) | Growth Rate ([3]; 18 h, replicate number 1) | Growth Rate ([3]; 24 h, replicate number 1) | Growth Rate ([3]; 24 h, replicate number 2) | Growth Rate ([2]; 6 h, replicate number 1) | Growth Rate ([2]; 18 h, replicate number 1) | Growth Rate ([2]; 24 h, replicate number 1) | other results |
| --- | --- | --- | --- | --- | --- | --- | --- | --- | --- | --- | --- | --- | --- | --- | --- | --- | --- | --- | --- | --- | --- |
| NC(=O)c1ccc(-c2nc(-c3ccc4c(c3)OCCO4)c(-c3ccccn3)[nH]2)cc1 | 0.37 | 0.65 | 0.76 | 0.81 | 0.8 | 0.74 | 0.79 | 0.86 | 0.41 | 0.77 | 0.45 | 0.63 | 0.74 | 0.58 | 0.55 | 0.5 | 0.75 | – | – | – | Growth Rate ([2]; 0 h, replicate number 1): -1; Growth Rate ([2]; 0 h, replicate number 2): -0.85; Growth Rate ([3]; 6 h, replicate number 1): 0.21; Growth Rate ([3]; 12 h, replicate number 2): 0.94; Growth Rate ([3]; 18 h, replicate number 2): 0.86 |
| Cc1nc(Nc2cnn(C3CCNCC3)c2)nc2c1N(C)C(=O)c1cc3ccccc3cc1N2C | 0.03 | 0.26 | 0.41 | 0.67 | 0.48 | 0.63 | 0.52 | 0.7 | 0.56 | -0.05 | 0.26 | 0.06 | 0.17 | -0.83 | 0.36 | 0.58 | 0.62 | -0.01 | -0.22 | -0.14 | Growth Rate ([3]; 6 h, replicate number 1): 0.19; Growth Rate ([3]; 6 h, replicate number 2): 0.81; Growth Rate ([3]; 12 h, replicate number 2): 0.83; Growth Rate ([3]; 18 h, replicate number 2): 0.65 |
| C=CC(=O)Nc1cc(-c2nn(C3CCC(N4CCN(C(C)=O)CC4)CC3)c3ncnc(N)c23)ccc1Oc1ccccc1 (stereo not drawn) | -0.71 | -0.92 | -0.48 | -0.56 | -0.4 | -0.22 | -0.31 | 0.09 | -0.24 | -0.15 | 0.07 | 0.33 | 0.67 | -0.62 | -0.59 | -0.59 | -0.41 | -0.52 | 0.03 | 0.21 | Growth Rate ([3]; 0 h, replicate number 2): -0.83; Growth Rate ([3]; 6 h, replicate number 1): -0.85; Growth Rate ([3]; 6 h, replicate number 2): -0.6; Growth Rate ([3]; 12 h, replicate number 2): -0.57; Growth Rate ([3]; 18 h, replicate number 2): -0.48 |
| CC[C@H](CO)Nc1nc(Nc2cccc(-c3ccccn3)c2)c2ncn(C(C)C)c2n1.Cl.O | -0.37 | -0.77 | -0.07 | -0.31 | 0.07 | -0.09 | 0.16 | 0 | 0.21 | 0.05 | 0.28 | 0.45 | 0.49 | 0.96 | 0.92 | 0.76 | – | 0.1 | 0.33 | 0.45 | Growth Rate ([2]; 0 h, replicate number 1): -0.64; Growth Rate ([3]; 0 h, replicate number 1): -0.98 |
| Fc1ccc(-c2nc(-c3ccc4ccccc4c3F)[nH]c2-c2ccncc2)cc1 | 0.81 | 0.42 | 0.77 | 0.57 | 0.7 | 0.41 | 0.67 | 0.47 | -0.01 | 0.47 | 0.65 | 0.8 | – | – | – | – | 0.94 | 0.58 | 0.61 | 0.76 | Growth Rate ([3]; 0 h, replicate number 1): -1 |
| Cc1ccc2c(N)c(C(=O)NC3CCc4cc(N5CC6CCC(C5)N6)ccc4C3)sc2n1.O=CO (stereo not drawn) | -0.55 | -0.64 | -0.47 | -0.55 | -0.39 | -0.46 | -0.32 | -0.37 | -0.1 | 0.09 | -0.17 | -0.26 | -0.21 | 0.47 | 0.35 | 0.24 | 0.08 | 0.09 | 0.05 | 0.01 | Growth Rate ([3]; 0 h, replicate number 2): 0.59; Growth Rate ([3]; 6 h, replicate number 2): 0.37; Growth Rate ([3]; 12 h, replicate number 2): 0.12; Growth Rate ([3]; 18 h, replicate number 2): 0.15 |
| CCN1CCN(Cc2ccc(C(=O)Nc3ccc(C)c(Oc4ccc5c(c4)CC(=O)N5)c3)cc2C(F)(F)F)CC1.Cl.Cl | -0.56 | -0.1 | -0.3 | 0.11 | -0.23 | 0.15 | -0.13 | 0.14 | 0.36 | -0.1 | -0.08 | -0.3 | -0.31 | 0.23 | 0.37 | 0.51 | -0.01 | 0.34 | -0.33 | -0.38 | Growth Rate ([2]; 0 h, replicate number 2): 0.42; Growth Rate ([3]; 0 h, replicate number 2): -0.46; Growth Rate ([3]; 6 h, replicate number 2): -0.37; Growth Rate ([3]; 12 h, replicate number 2): -0.14; Growth Rate ([3]; 18 h, replicate number 2): -0.02 |
